Consider 23 molecules from patent publication US4206088A, “Solid conducting agent” (priority 1978, dated 1980).

For data set [1] the following is noted: as determined at 20° C.; cited from earlier work.
Another data set in a line: volume resistivity. The class given is physicochemical. As to conditions: 23° C., 50% relative humidity. Here is the method: In the present invention, it is very important that the above-mentioned protonically conductive solid should be adsorbed and supported on a finely divided inorganic solid acid.
Incidentally, in this and subsequent Examples, all the values of the volume resistivity were those as measured at a temperature of 23° C. and a relative humidity of 50%, unless otherwise indicated.

Structures can show the parent of a compound that is named as a salt.

As for `c1ccc(-c2ccccn2)nc1` [2,2'-Bis-pyridine], the “First Stage Base Dissociation Constant (pKb)” value in data set [1] is reported as 9.88.
As to `Nc1ccncc1` [4-Aminopyridine], the “First Stage Base Dissociation Constant (pKb)” value in data set [1] is listed as 4.83.
`C=CCN` [Allylamine]: in data set [1], the “First Stage Base Dissociation Constant (pKb)” value is reported as 3.51.
`CCCCCN` [Amylamine]: the “First Stage Base Dissociation Constant (pKb)” value in data set [1] was 3.37.
Turning to `NC1CCCCC1` [Cyclohexylamine], the “First Stage Base Dissociation Constant (pKb)” value in data set [1] was 3.36.
Regarding `CCNCC` [Diethylamine], the “First Stage Base Dissociation Constant (pKb)” value in data set [1] is 3.02.
Regarding `CNC` [Dimethylamine], the “First Stage Base Dissociation Constant (pKb)” value in data set [1] was 3.13.
On to `CCN` [Ethylamine], for which the “First Stage Base Dissociation Constant (pKb)” value in data set [1] was 3.37.
`NCCN` [Ethylenediamine sulfate]: the volume resistivity in the data set “volume resistivity” is given as 2.74×10^8 .OMEGA.-cm.
Turning to `CCNN` [Ethylhydrazine], the “First Stage Base Dissociation Constant (pKb)” value in data set [1] is reported as 6.29.
With `N=C(N)N` [Guanidine sulfate], in the data set “volume resistivity”, the volume resistivity is 6.69×10^7 .OMEGA.-cm.
With `C1N2CN3CN1CN(C2)C3` [Hexamethylene-tetraamine succinate], the volume resistivity in “volume resistivity” is listed as 2.05×10^11 .OMEGA.-cm.
In the case of `NN` [Hydrazine], the “First Stage Base Dissociation Constant (pKb)” value in data set [1] was 6.07.
Take `NO` [Hydroxylamine]: the “First Stage Base Dissociation Constant (pKb)” value in data set [1] is on record as 8.03.
Turning to `CN` [Methylamine], the “First Stage Base Dissociation Constant (pKb)” value in data set [1] is reported as 3.38.
In the case of `CNN` [Methylhydrazine], in data set [1], the “First Stage Base Dissociation Constant (pKb)” value is reported as 6.13.
Take `N=C(N)Nc1ccccc1` [Phenylguanidine]: the “First Stage Base Dissociation Constant (pKb)” value in data set [1] is reported as 3.23.
Take `C1CNCCN1.O=S(=O)(O)O` [Piperazine sulfate]: the volume resistivity in the data set “volume resistivity” is given as 9.35×10^7 .OMEGA.-cm.
Take `C1CCNCC1` [Piperidine]: the “First Stage Base Dissociation Constant (pKb)” value in data set [1] was 2.78.
For `C1CCNC1` [Pyrrolidine], the “First Stage Base Dissociation Constant (pKb)” value in data set [1] is listed as 2.73.
As to `CN(C)C` [Trimethylamine], the “First Stage Base Dissociation Constant (pKb)” value in data set [1] is 4.24.
Regarding `C1CNC1` [Trimethylene-imine], the “First Stage Base Dissociation Constant (pKb)” value in data set [1] is 2.71.
With `C1CCNCC1.O=S(=O)(O)O` [piperidine sulfate], the volume resistivity in “volume resistivity” is recorded as 3.54×10^7 .OMEGA.-cm.
